We go through eleven compounds from patent US8404677B2, “Kinase inhibitors” (Genosco, priority 2009, dated 2013).

SMILES strings stand for the structures. Counter-ions that a name gives are not always drawn.

Experiment [1] concerns the target T1, truncated human FLT3 (Homo sapiens, UniProt P36888).
T1 construct: truncated human FAK, RET, FLT3, JAK2, and LRRK2 (CARNA BIOSCIENCES™); purchased Carna Biosciences
T1 sequence (P36888 564-993 limits assumed): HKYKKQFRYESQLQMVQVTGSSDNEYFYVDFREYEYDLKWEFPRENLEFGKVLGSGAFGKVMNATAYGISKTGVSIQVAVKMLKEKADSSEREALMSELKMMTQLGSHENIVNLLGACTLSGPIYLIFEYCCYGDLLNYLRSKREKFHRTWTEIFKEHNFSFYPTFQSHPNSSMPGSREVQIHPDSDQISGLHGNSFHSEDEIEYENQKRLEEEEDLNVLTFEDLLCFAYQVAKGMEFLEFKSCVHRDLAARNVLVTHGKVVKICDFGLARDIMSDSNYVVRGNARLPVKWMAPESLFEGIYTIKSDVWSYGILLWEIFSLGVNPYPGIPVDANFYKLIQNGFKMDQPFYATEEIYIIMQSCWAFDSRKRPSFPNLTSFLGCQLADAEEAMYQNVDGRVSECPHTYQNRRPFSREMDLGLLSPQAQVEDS
As to the kind of experiment: Inhibition of enzymatic kinase activity (LANCE Ulight). The format is biochemical. How it is done:
(§1) Inhibition of Enzymatic SYK, ZAP70, PYK2, FAK, PIM1, RET, FLT3, JAK2 and LRRK2 Kinase Activity
(§2) Compounds of the invention were initially diluted to 10 mM in 100% DMSO (CALBIOCHEM™) for storage and made into kinase buffer solution to create a compound concentration ranging from 1 uM and 10 uM. Serial dilutions of compounds of the invention were dispensed into a 96-well plate (GREINER BIOSCIENCES™) at 6 μL each. Purified full-length human SYK, ZAP70, PIM1, PYK2 and truncated human FAK, RET, FLT3, JAK2, and LRRK2 (CARNA BIOSCIENCES™) were diluted in kinase buffer and added to the compound solutions and pre-incubated for 30 minutes at room temperature (1 hour for PYK2). […] The reaction mixture was incubated for 1 hour (2 hours for PYK2). Following the incubation, the stop solution made with EDTA, water, and Lance detection buffer ([…]™) was added (12 μL each) to stop phosphorylation.
For orientation: TR-FRET usually uses a lanthanide donor and a delayed reading to cut background.

Experiment [2] has as its target T2, truncated human JAK2 (Homo sapiens, UniProt O60674).
T2 construct: truncated human FAK, RET, FLT3, JAK2, and LRRK2 (CARNA BIOSCIENCES™); purchased Carna Biosciences
The experiment is described as above. The experiment is classed as biochemical. The procedure: as §1, §2

Experiment [3] concerns the target T3, truncated human RET (Homo sapiens, UniProt P07949).
T3 construct: truncated human FAK, RET, FLT3, JAK2, and LRRK2 (CARNA BIOSCIENCES™); purchased Carna Biosciences
T3 sequence (P07949 658-1114 limits assumed): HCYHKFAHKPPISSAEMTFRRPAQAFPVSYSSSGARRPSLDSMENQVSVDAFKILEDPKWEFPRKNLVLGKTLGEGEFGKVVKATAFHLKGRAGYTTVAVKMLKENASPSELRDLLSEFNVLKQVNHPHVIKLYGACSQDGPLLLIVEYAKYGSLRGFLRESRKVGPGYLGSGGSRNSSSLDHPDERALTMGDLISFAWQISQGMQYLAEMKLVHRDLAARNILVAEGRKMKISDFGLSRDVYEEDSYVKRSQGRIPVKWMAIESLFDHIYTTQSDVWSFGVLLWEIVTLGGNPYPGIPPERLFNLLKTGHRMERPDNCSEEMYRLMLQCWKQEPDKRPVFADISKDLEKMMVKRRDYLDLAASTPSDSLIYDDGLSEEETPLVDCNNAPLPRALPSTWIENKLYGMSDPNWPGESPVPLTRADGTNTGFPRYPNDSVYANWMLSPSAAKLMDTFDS
Described as above. The experiment is classed as biochemical. The procedure: as §1, §2

For experiment [4], the target named is T4, human ZAP70 (Homo sapiens, UniProt P43403).
T4 construct: Purified full-length human SYK, ZAP70, PIM1, PYK2; purchased Carna Biosciences
T4 sequence (P43403 1-619): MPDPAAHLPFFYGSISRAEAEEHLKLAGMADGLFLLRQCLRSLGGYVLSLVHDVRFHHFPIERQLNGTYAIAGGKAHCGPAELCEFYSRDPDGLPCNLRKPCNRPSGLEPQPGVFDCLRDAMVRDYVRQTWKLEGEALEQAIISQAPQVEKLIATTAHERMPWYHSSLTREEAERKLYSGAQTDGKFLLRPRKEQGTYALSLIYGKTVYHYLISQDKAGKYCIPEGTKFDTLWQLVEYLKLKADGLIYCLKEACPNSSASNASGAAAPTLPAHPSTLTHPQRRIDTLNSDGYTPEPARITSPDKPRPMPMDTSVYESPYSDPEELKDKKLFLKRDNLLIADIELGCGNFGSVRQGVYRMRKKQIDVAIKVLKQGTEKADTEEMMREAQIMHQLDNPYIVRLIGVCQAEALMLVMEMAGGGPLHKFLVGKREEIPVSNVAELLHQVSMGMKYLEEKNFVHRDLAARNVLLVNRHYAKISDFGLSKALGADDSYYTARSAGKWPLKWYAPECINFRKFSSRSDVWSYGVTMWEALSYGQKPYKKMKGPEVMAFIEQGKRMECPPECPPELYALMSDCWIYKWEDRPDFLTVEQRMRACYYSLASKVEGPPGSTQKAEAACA
Described as above. The experiment is classed as biochemical. As to conditions: at 1 μM concentration; read-out: ZAP70 percentage inhibition. The procedure: as §1, §2

The target of experiment [5] is T5, truncated human FAK (Homo sapiens, UniProt Q05397).
T5 construct: truncated human FAK, RET, FLT3, JAK2, and LRRK2 (CARNA BIOSCIENCES™); purchased Carna Biosciences
T5 sequence (Q05397 376-1052 limits assumed): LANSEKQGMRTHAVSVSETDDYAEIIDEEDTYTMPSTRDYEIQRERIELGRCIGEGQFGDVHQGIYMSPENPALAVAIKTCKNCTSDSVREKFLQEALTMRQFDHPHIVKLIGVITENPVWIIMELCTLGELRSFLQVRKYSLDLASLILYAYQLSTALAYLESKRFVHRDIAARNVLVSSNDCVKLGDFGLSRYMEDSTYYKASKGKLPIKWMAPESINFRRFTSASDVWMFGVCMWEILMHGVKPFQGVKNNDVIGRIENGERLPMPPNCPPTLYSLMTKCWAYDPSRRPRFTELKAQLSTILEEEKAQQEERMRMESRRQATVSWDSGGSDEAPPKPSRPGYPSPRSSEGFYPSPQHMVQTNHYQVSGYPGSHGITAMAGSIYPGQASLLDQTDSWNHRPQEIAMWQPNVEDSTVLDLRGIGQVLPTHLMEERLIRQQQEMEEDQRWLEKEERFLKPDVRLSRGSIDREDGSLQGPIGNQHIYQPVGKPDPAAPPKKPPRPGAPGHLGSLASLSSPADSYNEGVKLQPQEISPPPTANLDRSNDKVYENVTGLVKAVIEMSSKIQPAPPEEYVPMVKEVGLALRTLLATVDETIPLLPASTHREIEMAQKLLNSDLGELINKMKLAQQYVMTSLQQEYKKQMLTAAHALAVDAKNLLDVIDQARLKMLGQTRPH
The description is as above. Conditions: for inhibition at 1 µM: at 1 μM concentration, read-out: FAK percentage inhibition; for IC50: read-out: FAK molar inhibition (IC50). The format is biochemical. The procedure: as §1, §2

The target in experiment [6] is T6, human PIM1 (Homo sapiens, UniProt P11309).
T6 construct: Purified full-length human SYK, ZAP70, PIM1, PYK2; purchased Carna Biosciences
T6 sequence (P11309 whole entry): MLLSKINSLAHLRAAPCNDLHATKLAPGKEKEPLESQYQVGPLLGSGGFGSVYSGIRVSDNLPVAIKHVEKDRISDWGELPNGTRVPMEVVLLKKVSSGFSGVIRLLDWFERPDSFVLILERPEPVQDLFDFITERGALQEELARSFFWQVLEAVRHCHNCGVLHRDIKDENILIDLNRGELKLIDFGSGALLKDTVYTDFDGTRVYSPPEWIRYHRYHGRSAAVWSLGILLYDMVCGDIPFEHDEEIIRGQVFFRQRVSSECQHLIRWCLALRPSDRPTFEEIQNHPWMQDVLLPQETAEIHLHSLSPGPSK
The experiment is described as above. The experiment is classed as biochemical. As to conditions: at 1 μM concentration; read-out: PIM1 percentage inhibition. How it is done:
as §1
as §2, with “phosphorylation. […] Substrate phosphorylation was a function of the 665 nm emission measured following the addition of the detection solution and 50 minutes of incubation.” for “phosphorylation.”

Experiment [7] addresses PYK2 (Homo sapiens, UniProt Q14289). The experiment is described as above. Also noted: Purified full-length human SYK, ZAP70, PIM1, PYK2; purchased Carna Biosciences. The format is biochemical. Conditions: for inhibition at 1 µM: at 1 μM concentration, read-out: PYK2 percentage inhibition; for IC50: read-out: PYK2 molar inhibition (IC50). The procedure: as §1, §2
Experiment [8] addresses SYK (Homo sapiens, UniProt P43405). The description is as above. As to conditions: for inhibition at 1 µM: at 1 μM concentration, read-out: SYK percentage inhibition; for IC50: read-out: SYK molar inhibition (IC50). More on the design: Purified full-length human SYK, ZAP70, PIM1, PYK2; purchased Carna Biosciences. The format is biochemical. The procedure: as §1, §2
Experiment [9] concerns TNF-α release in THP-1 cells, IgG stimulation. Kind of experiment: SYK dependent TNF-α release assay (IgG stimulation). The experiment is classed as cell-based, human. As to conditions: for percentage inhibition of TNF-α release compared with R406: IgG stimulated release, 0.3 μM. How it is done:
Compounds of the invention were tested for their TNF-α release effect on THP-1 cells. For SYK dependent TNF-α release assay (i.e., via IgG stimulation), THP-1 cells derived from human monocytic cells were obtained from the American Type Culture Collection (ATCC, Manassas, Va.). This cell line was maintained with an Roswell Park Memorial Institute (RPMI) medium (GIBCO™) containing 10 fetal bovine serum (FBS; GIBCO™) and 0.05 mM 2-mercaptoethanol. The THP-1 cells were seeded at 1×10^5 cells/100 μL/well into human IgG ([…], INVITROGEN™)-coated 96 well culture plate, and serially diluted compound was then added. After an 18-hour incubation period at 37° C., supernatants were collected for the determination of the TNF-α level by enzyme-linked immunosorbent assay (ELISA), and the remaining cells were subjected to an MTT (yellow tetrazolium salt) assay to determine the cytotoxic effects of compound.

PYK2, sequence (Q14289 whole entry): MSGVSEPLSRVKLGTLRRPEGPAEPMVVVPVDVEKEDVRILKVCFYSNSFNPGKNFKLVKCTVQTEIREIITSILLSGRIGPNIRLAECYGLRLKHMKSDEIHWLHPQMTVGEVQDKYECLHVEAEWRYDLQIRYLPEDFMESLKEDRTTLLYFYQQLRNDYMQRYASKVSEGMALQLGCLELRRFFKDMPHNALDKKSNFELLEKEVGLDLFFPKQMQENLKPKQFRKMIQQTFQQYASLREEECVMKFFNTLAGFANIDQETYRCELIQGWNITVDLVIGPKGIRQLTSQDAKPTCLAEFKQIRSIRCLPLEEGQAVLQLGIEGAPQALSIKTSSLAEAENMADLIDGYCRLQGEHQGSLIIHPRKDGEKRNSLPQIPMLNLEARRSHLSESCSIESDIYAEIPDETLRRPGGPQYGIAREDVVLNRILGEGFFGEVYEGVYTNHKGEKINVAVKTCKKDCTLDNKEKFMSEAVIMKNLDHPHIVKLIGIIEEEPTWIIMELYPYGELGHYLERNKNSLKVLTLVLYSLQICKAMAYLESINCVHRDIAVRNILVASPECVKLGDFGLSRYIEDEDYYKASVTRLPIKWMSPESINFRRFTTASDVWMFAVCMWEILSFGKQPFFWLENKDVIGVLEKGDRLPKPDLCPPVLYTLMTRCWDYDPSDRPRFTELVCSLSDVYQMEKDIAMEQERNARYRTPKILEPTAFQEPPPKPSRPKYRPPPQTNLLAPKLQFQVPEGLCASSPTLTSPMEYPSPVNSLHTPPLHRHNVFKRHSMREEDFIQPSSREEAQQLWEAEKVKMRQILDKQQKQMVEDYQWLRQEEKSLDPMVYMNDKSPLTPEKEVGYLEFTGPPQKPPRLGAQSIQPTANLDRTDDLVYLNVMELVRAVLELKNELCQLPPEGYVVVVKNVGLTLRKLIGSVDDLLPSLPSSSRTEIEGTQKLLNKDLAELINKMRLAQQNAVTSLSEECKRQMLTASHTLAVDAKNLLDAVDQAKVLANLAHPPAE
T2 sequence (O60674 826-1132 limits assumed): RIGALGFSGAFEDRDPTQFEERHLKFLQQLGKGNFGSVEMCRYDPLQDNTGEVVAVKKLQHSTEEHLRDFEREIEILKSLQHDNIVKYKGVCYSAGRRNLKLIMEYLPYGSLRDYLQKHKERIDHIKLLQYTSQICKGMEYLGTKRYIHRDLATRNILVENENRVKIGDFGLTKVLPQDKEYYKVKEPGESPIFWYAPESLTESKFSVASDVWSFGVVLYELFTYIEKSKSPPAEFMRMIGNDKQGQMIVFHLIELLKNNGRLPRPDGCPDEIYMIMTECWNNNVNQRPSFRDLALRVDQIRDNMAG

As for `COc1cc(Nc2nc(N3CCC(O)(CO)CC3)nc3cc[nH]c(=O)c23)cc(OC)c1` [Compound 2, 4-(3,5-dimethoxyphenylamino)-2-(4-hydroxy-4-(hydroxymethyl)piperidin-1-yl)pyrido[4,3d]pyrimidin-5(6H)-one], the IC50 (commonly the point on the concentration scale where inhibition reaches its midpoint) was 368 nM in experiment [1], 73.8 nM in experiment [2] and 363 nM in [3].

`N[C@@H]1CCN(c2nc(Nc3cccc(C(F)(F)F)c3)c3c(=O)[nH]ccc3n2)C1` [Compound 7, (R)-2-(3-aminopyrrolidin-1-yl)-4-(3-(trifluoromethyl)phenylamino)pyrido[4,3-d]pyrimidin-5(6H)-one hydrochloride]: the inhibition (in general, the drop in the measured response relative to a control, in per cent) at 1 µM was 42% in experiment [4]; 83.5% in experiment [5]; 51.4% in [6]; 84.9% in [7]; 92.6% in experiment [8].

As to `O=c1[nH]ccc2nc(N[C@H]3CCNC3)nc(Nc3ccc(Oc4ccccc4)cc3)c12` [Compound 125, (S)-4-(phenoxyphenylamino)-2-(pyrrolidin-3-ylamino)pyrido[4,3-d]pyrimidin-5(6H)-one hydrochloride], the IC50 in experiment [1] stood at 0.6 nM; in [2] it was 24.9 nM; in experiment [3], 3.4 nM.

Regarding `COc1cc(Nc2ncc(F)c(Nc3ccc4c(n3)NC(=O)C(C)(C)O4)n2)cc(OC)c1OC` [Compound R406, reference compound], the “Inhibition of TNF-α Release (percentage inhibition)” value in experiment [9] (IgG stimulation, At 0.3 μM, THP-1) was 49.9%; in [9] (IgG stimulation, At 1 μM, THP-1) it was 87.4%.

Turning to `COc1cc(Nc2nc(N3CCC(O)CC3)nc3cc[nH]c(=O)c23)cc(OC)c1` [Compound 1, 4-(3,5-dimethoxyphenylamino)-2-(4-hydroxypiperidin-1-yl)pyrido[4,3,-d]pyrimidin-6(6H)-one], the values for the IC50 in experiment [1], in experiment [2] and in experiment [3] were 242 nM, 59.4 nM and 200 nM, respectively.

As to `COc1ccc(Nc2nc(N3CCC(O)CC3)nc3cc[nH]c(=O)c23)cc1C(F)(F)F` [Compound 150, 2-(4-hydroxypiperidin-1-yl)-4-(4-methoxy-3-(trifluoromethyl)phenylamino)pyrido[4,3d]pyrimidin-5(6H)-one], the IC50 worked out at 106 nM in experiment [1], 65.3 nM in [2] and 115 nM in experiment [3].

With `COc1cc(Nc2nc(N3CCC(O)CC3)nc3cc[nH]c(=O)c23)cc(OC)c1OC` [Compound 149, 2-(4-hydroxypiperidin-1-yl)-4-(3,4,5-triemethoxyphenylamino)pyrido[4,3d]pyrimidin-5(6H)-one], the IC50 stood at 151 nM in [1], 151 nM in experiment [2] and 32.7 nM in experiment [3].

`COc1ccc(Nc2nc(N3CCC(CO)CC3)nc3cc[nH]c(=O)c23)cc1C(F)(F)F` [Compound 151, 2-(4-(hydroxymethyl)piperidin-1-yl)-4-(4-methoxy-3-(trifluoromethyl)phenylamino)pyrido[4,3d]pyrimidin-5(6H)-one]: the IC50 in experiment [5] came to 217 nM; in [7], 90.2 nM; in [8] it was 8.2 nM. For the same compound, the “percentage inhibition of TNF-α release compared with R406” value in experiment [9] is given as “greater than those exhibited by R406”.

For the compound `COc1ccc(Nc2nc(N3CCC(O)(CO)CC3)nc3cc[nH]c(=O)c23)cc1C(F)(F)F` [Compound 152, 2-(4-hydroxy-4-(hydroxymethyl)piperidin-1-yl)-4-(4-methoxy-3-(trifluoromethyl)phenylamino)pyrido[4,3-d]pyrimidin-5(6H)-one], the half-maximal inhibitory concentration (IC50) in experiment [5] worked out at 337 nM; in experiment [7] it was 84.3 nM; in experiment [8] it was 2.7 nM. Further, the inhibition at 0.3 µM in [9] (Homo sapiens, IgG stimulation, At 0.3 μM, THP-1, read-out: Inhibition of TNF-α Release (percentage inhibition)) came out at 80.5%. In addition, in [9] (Homo sapiens, IgG stimulation, At 1 μM, THP-1, read-out: Inhibition of TNF-α Release (percentage inhibition)), the inhibition at 1 µM is 82.9%. Also, in experiment [9], the “percentage inhibition of TNF-α release compared with R406” value is given as “higher percentage inhibition”.

For the compound `N[C@@H]1CCCC[C@H]1Nc1nc(Nc2cc(C(F)(F)F)cc(C(F)(F)F)c2)c2c(=O)[nH]ccc2n1` [Compound 100, 2-((1R,2R)-2-aminocyclohexylamino)-4-(3,5-bis(trifluoromethyl)phenylamino)pyrido[4,3-d]pyrimidin-5(6H)-one], the inhibition at 1 µM came to 9% in experiment [4], 21.9% in [5], 88.4% in experiment [7] and 37.7% in [8].

In the case of `O=c1[nH]ccc2nc(N3CCC(O)CC3)nc(Nc3ccc(N4CCOCC4)cc3)c12` [Compound 134, 2-(4-hydroxypiperidin-1-yl)-4-(4-morpholinophenylamino)pyrido[4,3-d]pyrimidin-5(6H)-one], the 50% inhibitory concentration (IC50) came to 3.7 nM in [2] and 7.3 nM in [3].
